In patent publication US9867841B2, “Compounds, compositions and methods using E-selectin antagonists for mobilization of hematopoietic cells” (GLYCOMIMETICS, INC., priority 2012, dated 2018):

Tested on: WBC, lymphocytes, monocytes, eosinophils, and neutrophils in circulation
Experiment: Mobilization of blood cells in CD-1 mice (Example 5, FIG. 5)
Format: in vivo
Conditions: AMD3100 dosed at 3 mg/kg
Protocol: Blood was collected from the animals at 2, 3, and 6 hours post dosing and analyzed for levels of total white blood cells (WBC) (Figure SA), neutrophils (FIG. 5B), eosinophils (FIG. 5C), lymphocytes (FIG. 5D), monocytes (FIG. 5E).
Blood was collected from the animals at 2, 3, and 6 hours post dosing and analyzed for levels of blood cells (WBC, lymphocytes, monocytes, eosinophils, and neutrophils) by standard CBC differential analyses methods.

c1cc(CN2CCCNCCNCCCNCC2)ccc1CN1CCCNCCNCCCNCC1 [AMD3100]
level and timing of WBC mobilization compared with Compound 25: generally equivalent to that elicited by Compound 25
